Measured values as given in patent US11040033B2 (Gilead Sciences, Inc., priority 2017, dated 2021).

Molecular target: T1, IDO1 (Homo sapiens, UniProt P14902)
T1 construct: HeLa cells were treated with a test compound in the presence of IFNγ, which induces IDO1 expression; endogenous in cells; host or cells: H1-HeLa cells (ATCC #CRL-1958), induced with IFNγ
Test: Cell-based (HeLa) assay for measurement of IDO1 inhibition (kynurenine levels in supernatant after IFNγ induction)
Conditions: H1-HeLa cells, IFNγ-induced IDO1, 48 hour incubation, kynurenine absorbance at 480 nm; geometric mean of a minimum of four determinations
Experimental: To measure IDO1 inhibition in tissue culture, HeLa cells were treated with a test compound in the presence of IFNγ, which induces IDO1 expression. Following incubation, cell supernatants were assayed for kynurenine levels, an indicator of IDO1 activity.
H1-HeLa cells (ATCC #CRL-1958) were seeded in 384-well plates (Greiner #82051-282) at a volume […] (Corning #15-018-CM) supplemented with 10% FBS (Corning #35-011-CV) and 1% P/S/G (Corning #30-009-CL) at a density of 1,250 cells/well and incubated overnight at 37° C., 5% CO2/100% humidity. The following day, the test compounds were added in DMSO (0.5% final) at various concentrations, and IDO1 was inducibly expressed by the addition of 50 uL/well of 50 ng/mL of INFγ(Peprotech #300-02) in cell plating media. As a positive control, 50 uL of the cell plating media without IFNγ was added to several wells. Following a 48 hour incubation, the plates were spun down at 1,200 RPM for 5 min at 10° C. 65 μL/well of the supernatant was then transferred to new 384-well plates (Thermo #262160) that contained 10 uL/well of 30% TCA (Sigma #T0699), and the plates were sealed and incubated at 60° C. for 30 min. The plates were then centrifuged for 15 min at 2,000 RPM at 10° C. 40 μL/well of the supernatant was transferred to new 384-well plates (Thermo #262160) and was reacted with 40 μL/well of 2% (w/v) p-dimethylaminobenzaldehyde (Sigma #156417) in glacial acetic acid (Sigma #A6283). The reaction was incubated at room temperature for 10 min and absorbance at 480 nm was read using a PerkinElmer Envision plate reader.
Data in Table 1 were normalized based on positive (−IFNγ) and negative (+IFNγ) controls and EC50 values were calculated from the fit of the dose-response curves to a four-parameter equation. All EC50 values represent geometric mean values of a minimum of four determinations. These assays generally produced results within 2-fold of the reported mean.

T1 sequence (P14902 whole entry): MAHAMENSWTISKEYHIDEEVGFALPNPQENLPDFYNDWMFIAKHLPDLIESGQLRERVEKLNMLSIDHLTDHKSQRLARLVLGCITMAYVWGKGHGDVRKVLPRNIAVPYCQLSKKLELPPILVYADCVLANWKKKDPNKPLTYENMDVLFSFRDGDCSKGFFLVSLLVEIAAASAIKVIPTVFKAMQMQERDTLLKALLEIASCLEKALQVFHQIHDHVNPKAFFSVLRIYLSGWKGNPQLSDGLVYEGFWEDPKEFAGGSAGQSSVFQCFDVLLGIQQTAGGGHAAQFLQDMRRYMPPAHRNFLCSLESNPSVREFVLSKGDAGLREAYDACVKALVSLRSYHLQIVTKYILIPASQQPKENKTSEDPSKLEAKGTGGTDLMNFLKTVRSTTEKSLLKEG

| SMILES | EC50 |
| --- | --- |
| Cc1ccc(-c2cccn3c(-c4ccccc4C(N)=O)nnc23)cc1C(=O)Nc1ccc(F)cc1 [Example 1, 5-(3-(2-carbamoylphenyl)-[1,2,4]triazolo[4,3-a]pyridin-8-yl)-N-(4-fluorophenyl)-2-methylbenzamide] | 5340 nM |
| Cc1nnc(-c2ncc3c(-c4ccc(C)c(C(=O)Nc5ccc(F)cc5)c4)cccn23)o1 [Example 2, N-(4-fluorophenyl)-2-methyl-5-(3-(5-methyl-1,3,4-oxadiazol-2-yl)imidazo[1,5-a]pyridin-8-yl)benzamide] | 3840 nM |
| Cc1ccc(-c2cccn3c(-c4cnnn4C)ncc23)cc1C(=O)Nc1ccc(F)cc1 [Example 3, N-(4-fluorophenyl)-2-methyl-5-(3-(1-methyl-1H-1,2,3-triazol-5-yl)imidazo[1,5-a]pyridin-8-yl)benzamide] | 2190 nM |
| Cc1ccc(-c2cccn3c(-c4cccnc4C)nnc23)cc1C(=O)Nc1ccc(F)cc1 [Example 4, N-(4-fluorophenyl)-2-methyl-5-(3-(2-methylpyridin-3-yl)-[1,2,4]triazolo[4,3-a]pyridin-8-yl)benzamide] | 2160 nM |
| Cc1ccc(-c2cccn3c(-c4ccc(F)cc4C)nnc23)cc1C(=O)Nc1ccc(F)cc1 [Example 5, 5-(3-(4-fluoro-2-methylphenyl)-[1,2,4]triazolo[4,3-a]pyridin-8-yl)-N-(4-fluorophenyl)-2-methylbenzamide] | 1410 nM |
| NC(=O)c1ccnc(-c2ncc3c(-c4ccc(C(F)(F)F)c(C(=O)Nc5ccc(F)cc5)c4)cccn23)c1 [Example 6, 2-(8-(3-((4-fluorophenyl)carbamoyl)-4-(trifluoromethyl)phenyl)imidazo[1,5-a]pyridin-3-yl)isonicotinamide] | 1330 nM |
| Cc1ccc(-c2cccn3c(-c4nnco4)ncc23)cc1C(=O)Nc1ccc(F)cc1 [Example 7] | 1220 nM |
| Cn1nncc1-c1ncc2c(-c3ccc(C(F)(F)F)c(C(=O)Nc4ccc(F)cc4)c3)cccn12 [Example 8, N-(4-fluorophenyl)-5-(3-(1-methyl-1H-1,2,3-triazol-5-yl)imidazo[1,5-a]pyridin-8-yl)-2-(trifluoromethyl)benzamide] | 1200 nM |
| Cc1ccc(-c2cccn3c(-c4ccccc4)nnc23)cc1C(=O)Nc1ccc(F)cc1 [Example 9, N-(4-fluorophenyl)-2-methyl-5-(3-phenyl-[1,2,4]triazolo[4,3-a]pyridin-8-yl)benzamide] | 809 nM |
| N#Cc1ccnc(-c2ncc3c(-c4ccc(C(F)(F)F)c(C(=O)Nc5ccc(F)cc5)c4)cccn23)c1 [Example 10, 5-(3-(4-cyanopyridin-2-yl)imidazo[1,5-a]pyridin-8-yl)-N-(4-fluorophenyl)-2-(trifluoromethyl)benzamide] | 712 nM |
| Cc1ccc(-c2cccn3c(-c4cccnc4)nnc23)cc1C(=O)Nc1ccc(F)cc1 [Example 11, N-(4-fluorophenyl)-2-methyl-5-(3-(pyridin-3-yl)-[1,2,4]triazolo[4,3-a]pyridin-8-yl)benzamide] | 683 nM |
| Cc1ccc(-c2cccn3c(-c4ccccc4C)nnc23)cc1C(=O)Nc1ccc(F)cc1 [Example 12, N-(4-fluorophenyl)-2-methyl-5-(3-(o-tolyl)-[1,2,4]triazolo[4,3-a]pyridin-8-yl)benzamide] | 403 nM |
| Cn1cnc(-c2ncc3c(-c4ccc(C(F)(F)F)c(C(=O)Nc5ccc(F)cc5)c4)cccn23)c1 [Example 13, N-(4-fluorophenyl)-5-(3-(1-methyl-1H-imidazol-4-yl)imidazo[1,5-a]pyridin-8-yl)-2-(trifluoromethyl)benzamide] | 365 nM |
| Cc1ccc(-c2cccn3c(-c4cn(C)cn4)ncc23)cc1C(=O)Nc1ccc(F)cc1 [Example 14, N-(4-fluorophenyl)-2-methyl-5-(3-(1-methyl-1H-imidazol-4-yl)imidazo[1,5-a]pyridin-8-yl)benzamide] | 322 nM |
| N#Cc1cccnc1-c1ncc2c(-c3ccc(C(F)(F)F)c(C(=O)Nc4ccc(F)cc4)c3)cccn12 [Example 15, 5-(3-(3-cyanopyridin-2-yl)imidazo[1,5-a]pyridin-8-yl)-N-(4-fluorophenyl)-2-(trifluoromethyl)benzamide] | 274 nM |
| Cc1ncc(-c2cccn3c(-c4ccccc4C(F)(F)F)ncc23)cc1C(=O)Nc1ccc(F)cc1 [Example 16, N-(4-fluorophenyl)-2-methyl-5-(3-(2-(trifluoromethyl)phenyl)imidazo[1,5-a]pyridin-8-yl)nicotinamide] | 239 nM |

| SMILES | EC50 |
| --- | --- |
| O=C(Nc1ccc(F)cc1)c1cc(-c2cccn3c(-c4cccnn4)ncc23)ccc1C(F)(F)F [Example 17, N-(4-fluorophenyl)-5-(3-(pyridazin-3-yl)imidazo[1,5-a]pyridin-8-yl)-2-(trifluoromethyl)benzamide] | 237 nM |
| Cc1ncc(-c2cccn3c(-c4cccc(F)c4C(F)(F)F)ncc23)cc1C(=O)Nc1ccc(F)cc1 [Example 18, 5-(3-(3-fluoro-2-(trifluoromethyl)phenyl)imidazo[1,5-a]pyridin-8-yl)-N-(4-fluorophenyl)-2-methylnicotinamide] | 211 nM |
| Cc1ncc(-c2cccn3c(-c4ncccc4F)ncc23)cc1C(=O)Nc1ccc(F)cc1 [Example 19, N-(4-fluorophenyl)-5-(3-(3-fluoropyridin-2-yl)imidazo[1,5-a]pyridin-8-yl)-2-methylnicotinamide] | 199 nM |
| Cc1ccc(-c2cccn3c(-c4cccc(F)c4F)nnc23)cc1C(=O)Nc1ccc(F)cc1 [Example 20, 5-(3-(2,3-difluorophenyl)-[1,2,4]triazolo[4,3-a]pyridin-8-yl)-N-(4-fluorophenyl)-2-methylbenzamide] | 192 nM |
| O=C(Nc1ccc(F)cc1)c1cc(-c2cccn3c(-c4ccnc5ccccc45)ncc23)ccc1C(F)(F)F [Example 21, N-(4-fluorophenyl)-5-(3-(quinolin-4-yl)imidazo[1,5-a]pyridin-8-yl)-2-(trifluoromethyl)benzamide] | 183 nM |
| Cc1cccc(-c2ncc3c(-c4cnc(C)c(C(=O)Nc5ccc(F)cc5)c4)cccn23)c1 [Example 22, N-(4-fluorophenyl)-2-methyl-5-(3-(m-tolyl)imidazo[1,5-a]pyridin-8-yl)nicotinamide] | 135 nM |
| Cc1ncc(-c2cccn3c(-c4cc(F)ccn4)ncc23)cc1C(=O)Nc1ccc(F)cc1 [Example 23, N-(4-fluorophenyl)-5-(3-(4-fluoropyridin-2-yl)imidazo[1,5-a]pyridin-8-yl)-2-methylnicotinamide] | 112 nM |
| Cc1ncc(-c2cccn3c(-c4c(F)cccc4F)ncc23)cc1C(=O)Nc1ccc(F)cc1 [Example 24, 5-(3-(2,6-difluorophenyl)imidazo[1,5-a]pyridin-8-yl)-N-(4-fluorophenyl)-2-methylnicotinamide] | 104 nM |
| Cc1ncc(-c2cccn3c(-c4ncccn4)ncc23)cc1C(=O)Nc1ccc(F)cc1 [Example 25, N-(4-fluorophenyl)-2-methyl-5-(3-(pyrimidin-2-yl)imidazo[1,5-a]pyridin-8-yl)nicotinamide] | 69 nM |
| O=C(Nc1ccc(F)cc1)c1cc(-c2cccn3c(-c4ccncn4)ncc23)ccc1C(F)(F)F [Example 26, N-(4-fluorophenyl)-5-(3-(pyrimidin-4-yl)imidazo[1,5-a]pyridin-8-yl)-2-(trifluoromethyl)benzamide] | 66.4 nM |
| Cc1ncc(-c2cccn3c(-c4cc(F)cc(F)c4)ncc23)cc1C(=O)Nc1ccc(F)cc1 [Example 27, 5-(3-(3,5-difluorophenyl)imidazo[1,5-a]pyridin-8-yl)-N-(4-fluorophenyl)-2-methylnicotinamide] | 61.7 nM |
| O=C(Nc1ccc(F)cc1)c1cc(-c2cccn3c(-c4cccc(F)c4F)ncc23)ncc1C(F)(F)F [Example 28, 2-(3-(2,3-difluorophenyl)imidazo[1,5-a]pyridin-8-yl)-N-(4-fluorophenyl)-5-(trifluoromethyl)isonicotinamide] | 57.9 nM |
| Cc1ccccc1-c1ncc2c(-c3cnc(C)c(C(=O)Nc4ccc(F)cc4)c3)cccn12 [Example 29, N-(4-fluorophenyl)-2-methyl-5-(3-(o-tolyl)imidazo[1,5-a]pyridin-8-yl)nicotinamide] | 44.7 nM |
| Cc1ncc(-c2cccn3c(-c4cc(F)ccc4F)ncc23)cc1C(=O)Nc1ccc(F)cc1 [Example 30] | 39 nM |
| O=C(Nc1ccc(F)cc1)c1cc(-c2cccn3c(-c4cccnc4)ncc23)ccc1C(F)(F)F [Example 31, N-(4-fluorophenyl)-5-(3-(pyridin-3-yl)imidazo[1,5-a]pyridin-8-yl)-2-(trifluoromethyl)benzamide] | 38.3 nM |
| O=C(Nc1ccc(F)cc1)c1cc(-c2cccn3c(-c4cc[nH]n4)ncc23)ccc1C(F)(F)F [Example 32, 5-(3-(1H-pyrazol-3-yl)imidazo[1,5-a]pyridin-8-yl)-N-(4-fluorophenyl)-2-(trifluoromethyl)benzamide] | 34.9 nM |
